Results from PubChem BioAssay AID1259407 (Chemical Carcinogenesis Research Information System (CCRIS), 2018).
Active and inactive are the calls of the source. The rule behind the calls is not given here.

Test system: CCRIS mutagenicity, Ames/micronucleus/aberration tests
Test: CCRIS mutagenicity studies
[1] = Test System: AMES SALMONELLA TYPHIMURIUM, Strain/Indicator: TA98, Metabolic Activation: NONE, Method: PREINCUBATION
[2] = Test System: AMES SALMONELLA TYPHIMURIUM, Strain/Indicator: TA100, Metabolic Activation: NONE, Method: PREINCUBATION
[3] = Test System: AMES SALMONELLA TYPHIMURIUM, Strain/Indicator: TA1535, Metabolic Activation: NONE, Method: PREINCUBATION

Measured: mutagenic call

S=c1nc[nH]c2nc[nH]c12
inactive: End Point: IN VITRO MICRONUCLEUS, Test System: CHO CELLS, Metabolic Activation: RAT, LIVER, S-9, AROCLOR 1254 inactive; negative | Test System: AMES SALMONELLA TYPHIMURIUM, Strain/Indicator: TA97, Metabolic Activation: HAMSTER, LIVER, S-9, AROCLOR 1254 (30%), Method: PREINCUBATION inactive; negative | Test System: AMES SALMONELLA TYPHIMURIUM, Strain/Indicator: TA97, Metabolic Activation: NONE, Method: PREINCUBATION inactive; negative | Test System: AMES SALMONELLA TYPHIMURIUM, Strain/Indicator: TA97, Metabolic Activation: NONE, Method: STANDARD PLATE inactive; negative | Test System: AMES SALMONELLA TYPHIMURIUM, Strain/Indicator: TA97, Metabolic Activation: RAT, LIVER, S-9, AROCLOR 1254 (30%), Method: PREINCUBATION inactive; negative | Test System: AMES SALMONELLA TYPHIMURIUM, Strain/Indicator: TA97, Metabolic Activation: RAT, LIVER, S-9, PHENOBARBITAL AND ALPHA-NAPHTHOFLAVONE, Method: STANDARD PLATE inactive; negative | Test System: AMES SALMONELLA TYPHIMURIUM, Strain/Indicator: TA98, Metabolic Activation: HAMSTER, LIVER, S-9, AROCLOR 1254 (30%), Method: PREINCUBATION inactive; negative | [1] inactive; negative | Test System: AMES SALMONELLA TYPHIMURIUM, Strain/Indicator: TA98, Metabolic Activation: NONE, Method: SPIRAL ASSAY inactive; negative | Test System: AMES SALMONELLA TYPHIMURIUM, Strain/Indicator: TA98, Metabolic Activation: NONE, Method: STANDARD PLATE inactive; negative | Test System: AMES SALMONELLA TYPHIMURIUM, Strain/Indicator: TA98, Metabolic Activation: RAT, LIVER, S-9, AROCLOR 1254 (30%), Method: PREINCUBATION inactive; negative | Test System: AMES SALMONELLA TYPHIMURIUM, Strain/Indicator: TA98, Metabolic Activation: RAT, LIVER, S-9, AROCLOR 1254, Method: SPIRAL ASSAY inactive; negative | Test System: AMES SALMONELLA TYPHIMURIUM, Strain/Indicator: TA98, Metabolic Activation: RAT, LIVER, S-9, AROCLOR 1254, Method: STANDARD PLATE inactive; negative | Test System: AMES SALMONELLA TYPHIMURIUM, Strain/Indicator: TA98, Metabolic Activation: RAT, LIVER, S-9, PHENOBARBITAL AND ALPHA-NAPHTHOFLAVONE, Method: STANDARD PLATE inactive; negative | Test System: AMES SALMONELLA TYPHIMURIUM, Strain/Indicator: TA100, Metabolic Activation: HAMSTER, LIVER, S-9, AROCLOR 1254 (30%), Method: PREINCUBATION inactive; negative | [2] inactive; negative | Test System: AMES SALMONELLA TYPHIMURIUM, Strain/Indicator: TA100, Metabolic Activation: NONE, Method: SPIRAL ASSAY inactive; negative | Test System: AMES SALMONELLA TYPHIMURIUM, Strain/Indicator: TA100, Metabolic Activation: RAT, LIVER, S-9, AROCLOR 1254 (30%), Method: PREINCUBATION inactive; negative | Test System: AMES SALMONELLA TYPHIMURIUM, Strain/Indicator: TA100, Metabolic Activation: RAT, LIVER, S-9, AROCLOR 1254, Method: SPIRAL ASSAY inactive; negative | Test System: AMES SALMONELLA TYPHIMURIUM, Strain/Indicator: TA100, Metabolic Activation: RAT, LIVER, S-9, AROCLOR 1254, Method: STANDARD PLATE inactive; negative | Test System: AMES SALMONELLA TYPHIMURIUM, Strain/Indicator: TA100, Metabolic Activation: RAT, LIVER, S-9, PHENOBARBITAL AND ALPHA-NAPHTHOFLAVONE, Method: STANDARD PLATE inactive; negative | Test System: AMES SALMONELLA TYPHIMURIUM, Strain/Indicator: TA102, Metabolic Activation: NONE, Method: STANDARD PLATE inactive; negative | Test System: AMES SALMONELLA TYPHIMURIUM, Strain/Indicator: TA1537, Metabolic Activation: NONE, Method: SPIRAL ASSAY inactive; negative | Test System: AMES SALMONELLA TYPHIMURIUM, Strain/Indicator: TA1537, Metabolic Activation: NONE, Method: STANDARD PLATE inactive; negative | Test System: AMES SALMONELLA TYPHIMURIUM, Strain/Indicator: TA1537, Metabolic Activation: RAT, LIVER, S-9, AROCLOR 1254, Method: SPIRAL ASSAY inactive; negative | Test System: AMES SALMONELLA TYPHIMURIUM, Strain/Indicator: TA1537, Metabolic Activation: RAT, LIVER, S-9, AROCLOR 1254, Method: STANDARD PLATE inactive; negative | Test System: E. COLI, Strain/Indicator: WP2 (HCR), Metabolic Activation: NONE, Method: STANDARD PLATE inactive; negative | Test System: UDS RAT HEPATOCYTES, Strain/Indicator: THY INCORP, Metabolic Activation: NONE, Method: AUTORADIOGRAPHY (SERUM-FREE MEDIA) inactive; negative
active: End Point: IN VITRO MICRONUCLEUS, Test System: CHL/IU CELLS, Metabolic Activation: NONE active; positive | Test System: AMES SALMONELLA TYPHIMURIUM, Strain/Indicator: TA1535, Metabolic Activation: HAMSTER, LIVER, S-9, AROCLOR 1254 (30%), Method: PREINCUBATION active; positive | [3] active; positive | Test System: AMES SALMONELLA TYPHIMURIUM, Strain/Indicator: TA1535, Metabolic Activation: NONE, Method: SPIRAL ASSAY active; positive | Test System: AMES SALMONELLA TYPHIMURIUM, Strain/Indicator: TA1535, Metabolic Activation: NONE, Method: STANDARD PLATE active; positive | Test System: AMES SALMONELLA TYPHIMURIUM, Strain/Indicator: TA1535, Metabolic Activation: RAT, LIVER, S-9, AROCLOR 1254 (30%), Method: PREINCUBATION active; positive | Test System: AMES SALMONELLA TYPHIMURIUM, Strain/Indicator: TA1535, Metabolic Activation: RAT, LIVER, S-9, AROCLOR 1254, Method: SPIRAL ASSAY active; positive | Test System: AMES SALMONELLA TYPHIMURIUM, Strain/Indicator: TA1535, Metabolic Activation: RAT, LIVER, S-9, AROCLOR 1254, Method: STANDARD PLATE active; positive | Test System: AMES SALMONELLA TYPHIMURIUM, Strain/Indicator: TA1535, Metabolic Activation: RAT, LIVER, S-9, PHENOBARBITAL AND ALPHA-NAPHTHOFLAVONE, Method: STANDARD PLATE active; positive | Test System: CHINESE HAMSTER V-79, Strain/Indicator: V-79/6-THIOGUANINE, Metabolic Activation: NONE, Method: SUSPENSION/PLATE active; positive | Test System: CHINESE HAMSTER V-79, Strain/Indicator: V-79/6-THIOGUANINE, Metabolic Activation: RAT, LIVER, HEPATOCYTES, Method: SUSPENSION/PLATE active; positive

Oc1cc(O)c2ccccc2c1
inactive: [3] inactive; negative | Test System: AMES SALMONELLA TYPHIMURIUM, Strain/Indicator: TA1537, Metabolic Activation: NONE, Method: PREINCUBATION inactive; negative | Test System: AMES SALMONELLA TYPHIMURIUM, Strain/Indicator: TA1538, Metabolic Activation: NONE, Method: PREINCUBATION inactive; negative | Test System: AMES SALMONELLA TYPHIMURIUM, Strain/Indicator: TA2659, Metabolic Activation: NONE, Method: PREINCUBATION inactive; negative
active: [1] active; positive | [2] active; positive | Test System: AMES SALMONELLA TYPHIMURIUM, Strain/Indicator: TA104, Metabolic Activation: NONE, Method: PREINCUBATION active; positive | Test System: AMES SALMONELLA TYPHIMURIUM, Strain/Indicator: TA2637, Metabolic Activation: NONE, Method: PREINCUBATION active; positive
